Patent publication US8802595B2, “Use of prolines for improving growth and/or yield” (Los Alamos National Security, LLC, priority 2005, dated 2014)

Legend:
Assay type in all cases: in vivo
oats [1] = assay: Oat tillers with flag leaves emerged at day 28 post-treatment (Example 2)
Description: The oats from example 1 were also monitored for their number of tillers with flag leaves emerged at day 28 post-treatment. This parameter relates to potential for grain yield. Table 2 contains the resultant tillers with flag leaves at 28 days for the same series of isomer mixtures.

[2] = system: Commercial field grown wheat; assay: Grain yield of field grown wheat sprayed at flag leaf stage (Example 5); conditions: wheat sprayed one time at flag leaf stage, harvested at maturity
Description: Commercial field grown wheat was sprayed one time with the pyroglutamate composition (isomer ratio 85:15 of L:D) at the flag leaf stage using the same treatment solution as described in our other plant treatments. Grain was harvested at maturity; the treated plots yielded 0.65 T/hectare more (7% increase) grain (seed) than the untreated plots.

[3] = system: Commercial field grown table grapes; assay: Yield of field grown table grapes sprayed twice (Example 6); conditions: 25 gm per acre
Description: Commercial field grown table grapes were at sprayed twice the first time at 6-12″ of new vine growth and the second spraying 2 months later. The pyroglutamate composition (isomer ratio 85:15 of L:D) was applied at a rate of 25 gm per acre.

oats [4] = assay: Mitigation by pyroglutamate of 2,4-D-induced stress in oats (Example 7); conditions: oat seedlings in greenhouse, 2,4-D at ¼ field strength, pyroglutamate 13.5 g/L, with surfactant/wetting agent
Method: A test was conducted to measure mitigation by pyroglutamate of 2,4-D-induced stress in a monocotyledonous crop plant, oats.
Growing oat plants were treated with a mixture of pyroglutamate (isomer ratio 85:15 of L:D) and 2,4-D and their growth monitored. Oat seedlings, growing vigorously in a greenhouse, were treated with a mixture of 2,4-D and pyroglutamate (13.5 g/L). The 2,4-D was included in the mixture at ¼ of the recommended field strength; a surfactant/wetting agent (Gly Surf P) was also used. The treatment solution was applied with a backpack R&D sprayer using 2 passes over the plants to assure that all plants received treatment solution. It was estimated that this simulated a ½ strength field dose. These plants were compared with plants treated with the herbicide and surfactant/wetting agent as well as with controls treated only with the surfactant/wetting agent (controls).

white clover = assay: Herbicidal killing rate on white clover (Example 8); conditions: recommended field strength application, 25 plants each treatment
Method: (§1) Two dicotyledenous plants, white clover and morning glory were treated with the manufacturer's recommended field strength application and the killing rate was measured. Growing morning glory and clover plants (25 each treatment) treated with either 2,4-D alone or a mixture of 2,4-D and pyroglutamate were killed with the same efficacy, 100%.

morning glory = assay: Herbicidal killing rate on morning glory (Example 8); conditions: recommended field strength application, 25 plants each treatment
Method: as §1

O=C(O)[C@@H]1CCC(O)=N1 [Series 7, pyroglutamate] was tested, and the “Tillers with flag leaves” value (oats [1]; listed as 7) was 29.
In the case of O=C(O)[C@@H]1CCC(O)=N1 [Series 6, pyroglutamate], the “Tillers with flag leaves” value (oats [1]; listed as 6) is reported as 37.
With O=C(O)[C@@H]1CCC(O)=N1 [Series 11, pyroglutamate] the “Tillers with flag leaves” value (oats [1]; listed as 11) was 26.
With O=C(O)[C@@H]1CCC(O)=N1 [Series 5, pyroglutamate] the “Tillers with flag leaves” value (oats [1]; listed as 5) was 33.
With O=C(O)[C@@H]1CCC(O)=N1 [Series 12, pyroglutamate] the “Tillers with flag leaves” value (oats [1]; listed as 12) was 24.
O=C(O)[C@@H]1CCC(O)=N1 [Series 1, pyroglutamate] was tested, and the “Tillers with flag leaves” value (oats [1]; listed as 1) was 20.
In the case of O=C(O)[C@@H]1CCC(O)=N1 [Series 2, pyroglutamate, reference compound], the “Tillers with flag leaves” value (oats [1]; listed as 2) is reported as 24.
O=C(O)[C@@H]1CCC(O)=N1 [Series 8, pyroglutamate] was tested, and the “Tillers with flag leaves” value (oats [1]; listed as 8) was 31.
For O=C(O)[C@@H]1CCC(O)=N1 [Series 9, pyroglutamate], the “Tillers with flag leaves” value (oats [1]; listed as 9) was 23.
For O=C(O)[C@@H]1CCC(O)=N1 [Series 3, pyroglutamate], the “Tillers with flag leaves” value (oats [1]; listed as 3) was 17.
With O=C(O)[C@@H]1CCC(O)=N1 [pyroglutamate composition (isomer ratio 85:15 of L:D), pyroglutamate] the “grain (seed) yield more than untreated plots” value [2] was 0.65 T/hectare, the “increase in grain yield versus untreated plots” value [2] was 7% and the “greater yield of harvestable grapes than untreated plots” value [3] was 13.5%. For the same compound, the “yield of harvestable grapes” value [3] was 1045 standard boxes.
In the case of O=C(O)[C@@H]1CCC(O)=N1 [Series 4, pyroglutamate], the “Tillers with flag leaves” value (oats [1]; listed as 4) is reported as 34.
In the case of O=C(O)[C@@H]1CCC(O)=N1 [Series 10, pyroglutamate], the “Tillers with flag leaves” value (oats [1]; listed as 10) is reported as 22.
In the case of O=C(O)COc1ccc(Cl)cc1Cl [2,4-D, 2,4-dichlorophenoxy acetic acid], the “average plant fresh weight” value (oats [4]) is reported as 2.29 g, the killing efficacy (white clover) is reported as 100% and the killing efficacy (morning glory) is reported as 100%.
